Assay results as given in US8546419B2, “Dual phase drug release system” (priority 2003, dated 2013).
Read-outs that look alike come from different tables or passages of the source.

Legend:
[1] = Experimental: The resultant suspension was diluted to 150 ml and extracted with methylene chloride (3×150 ml). Methylene chloride layers were combined, washed with 0.01 N HCl, and dried over magnesium sulfate. Solvent was removed in vacuum.
[2] = Hydrolytic stability and CPT release in aqueous media / phosphate buffered saline (RP HPLC); type: physicochemical
Experimental: The second stage hydrolysis of CPT-SI was investigated analogously.
Using procedures analogous to the described above, CPT release from these conjugates was investigated in phosphate buffered saline as described above. The conjugates were also tested for cytotoxicity in HT29 cell culture.

in vivo = details: mouse
Experimental: The toxicity of CPT was evaluated in normal outbred mice, as well as in xenograft bearing nude athymic animals in the course of antineoplastic activity studies.

HT-29 xenograft = type: in vivo; details: HT29 model; for time of tumor growth from 0.10-0.15 cm^3 to 1.5 cm^3: 22.5 mg/kg, untreated control 24 days
Experimental: Camptothecin and CPT-SI (the first phase release product) were used as controls.
Cells were injected subcutaneously into the left flank, 10^6 cells per animal in 50 μl. […] Animals of the first three groups received the respective experimental substance via the tail vein in five doses every three days (5xq3D). […] CPT and CPT-SI were administered as dispersions in Tween 80/water (9/1 v/v). Animal weight, tumor size, animal appearance, behavior, and survival rate were monitored for four weeks after administration. Weight loss over 20% and tumor growth over 1500 mm^3 were counted as lethalities (animals were euthanized).
The latter were administered as Cremofor® emulsions.

HT29 cell culture = experiment: Cytotoxicity of CPT derivatives, MTT assay; type: cell-based, human; details: HT-29 cell culture, 72 hours post treatment, read-out: ID50, growth inhibition
Experimental: Human colorectal adenocarcinoma HT-29 cell culture was from ATCC (ATCC HTB-38).
Cytotoxicity of CPT derivatives was investigated in HT29 cell culture. Cells were grown in McCoy's 5a medium with 1.5 mM L-glutamine supplemented with 10% FBS.

[3] = test system: HT-29 human colorectal carcinoma cells; experiment: Cell growth inhibition in vitro by Taxol preparations; type: cell-based; details: HT-29 cells, conjugate with Taxol content of 13%, read-out: ED50, cell growth inhibitory efficacy
Experimental: PHF-SAG-Taxol conjugate synthesis was carried out on a 2-gram scale, at ambient temperature, pH 5.5-6.0. […] The PHF-SAG-Taxol was purified of low molecular weight impurities by gel filtration on G25 Sefadex column equilibrated with DI water, and recovered by lyophilyzation. […] Stability of PHF-Taxol conjugates in aqueous media was monitored by HPLC.

## 1,1-Dimethylsuccinic Acid-Linked PHF-CPT [PHF-DMSA-CPT]
[1]
  solubility (in words): soluble in water, saline and polar organic solvents
[2]; PBS at pH 7.47/37° C., first phase release
  CPT half-release time: 0.6 h

## CC[C@@]1(O)C(=O)OCc2c1cc1n(c2=O)Cc2cc3ccccc3nc2-1 [CPT, camptothecin, reference compound]
In vivo
  MTD: 9 to 10 mg/kg
HT-29 xenograft
  time of tumor growth from 0.10-0.15 cm^3 to 1.5 cm^3: 40 days
HT29 cell culture; Homo sapiens
  IC50: 17 nM

## CCc1c2c(nc3ccc(OC(=O)N4CCC(N5CCCCC5)CC4)cc13)-c1cc3c(c(=O)n1C2)COC(=O)[C@]3(O)CC [Irinotecan]
In vivo
  MTD: 9 to 10 mg/kg

## CC(=O)O[C@H]1C(=O)[C@@]2(C)[C@H]([C@H](OC(=O)c3ccccc3)[C@]3(O)C[C@H](OC(=O)[C@H](O)[C@@H](NC(=O)c4ccccc4)c4ccccc4)C(C)=C1C3(C)C)[C@]1(OC(C)=O)CO[C@@H]1C[C@@H]2O [Taxol]
[3]
  EC50: 15 nM

## Camptothecin-20-(N-succinimidoglycinate) [CPT-SI]
[1]
  solubility in water: < 1.0 µg/mL
HT-29 xenograft
  effect on tumor dynamics: no significant effect on tumor dynamics
  time of tumor growth from 0.10-0.15 cm^3 to 1.5 cm^3: 27 days
HT29 cell culture
  IC50: 34 nM
[2]; depending on the conditions
  half-time of subsequent (second stage) hydrolysis: over 20 hrs
